ChEMBL document CHEMBL1151351, “Antineoplastic Agents. 67. Senecio fendleri Gray” (1980)

Legend:
P388 [1] = assay: In vivo antitumor activity against mouse P388 cells at 2 mg/kg relative to control; format: functional
P388 [2] = assay: In vivo antitumor activity against mouse P388 cells at 5 mg/kg relative to control; format: functional

COC(=O)CC1(O)C=CC(=O)C=C1 [JACARANONE]
T/C (P388 [1]): 165%

CCOC(=O)CC1(O)C=CC(=O)C=C1
T/C (P388 [2]): 120%
